The text below walks through data of patent publication US20240287076A1, “COMPOUNDS FOR TARGETING DEGRADATION OF BRUTON'S TYROSINE KINASE” (BIOGEN MA INC., priority 2021, published 2024).

The experiment has as its target T1, BTK (Homo sapiens, UniProt Q06187).
T1 construct: The GM01501.3 cell line endogenously expresses BTK with a HiBiT fusion tag via CRISPR knock-in at its C-terminal region; endogenous in cells; host or cells: GM01501.3 (GM01501 cells engineered by CRISPR knock-in of HiBiT at the BTK locus)
The experiment can be described thus: BTK degradation assay using the HiBiT Method (Nano-Glo HiBiT Lytic Assay, GM01501.3 cells). In kind it is cell-based. The following applies: HiBiT Degradation on GM01501.3 BTK @ 6 hours. The gist of the method:
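CRISPR knock-in GM01501.3 cells expressing endogenous BTK with C-terminal HiBiT tag, treated 6 h at 37 °C with compounds, 11-point half-log titration from 10 μM top, duplicates. Remaining BTK quantified by Nano-Glo HiBiT lytic luminescence versus DMSO controls; DC50 reported.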
Background: The HiBiT peptide binds its large partner to form an active luciferase.

T1 sequence (Q06187 whole entry, the tested form may be a part): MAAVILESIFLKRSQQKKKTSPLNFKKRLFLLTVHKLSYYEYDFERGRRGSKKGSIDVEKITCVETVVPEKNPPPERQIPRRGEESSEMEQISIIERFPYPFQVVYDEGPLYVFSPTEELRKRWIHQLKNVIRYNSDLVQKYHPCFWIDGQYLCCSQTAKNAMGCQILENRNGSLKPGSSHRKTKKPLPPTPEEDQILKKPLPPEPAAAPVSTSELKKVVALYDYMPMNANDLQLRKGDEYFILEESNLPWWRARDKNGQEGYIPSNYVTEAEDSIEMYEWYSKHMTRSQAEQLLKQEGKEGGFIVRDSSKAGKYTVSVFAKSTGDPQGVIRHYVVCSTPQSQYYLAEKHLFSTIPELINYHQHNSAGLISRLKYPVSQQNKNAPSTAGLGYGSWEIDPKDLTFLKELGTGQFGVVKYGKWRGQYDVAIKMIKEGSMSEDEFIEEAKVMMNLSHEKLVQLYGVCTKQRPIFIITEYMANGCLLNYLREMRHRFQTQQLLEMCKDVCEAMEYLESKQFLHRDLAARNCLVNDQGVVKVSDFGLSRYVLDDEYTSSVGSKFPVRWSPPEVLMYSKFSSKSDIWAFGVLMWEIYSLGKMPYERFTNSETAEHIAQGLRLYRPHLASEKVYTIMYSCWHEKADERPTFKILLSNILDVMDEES

Compound `Cc1cc(-c2ncnn3cc(CCN4CCC(c5ccc6c(N7CCC(=O)NC7=O)nn(C)c6c5)CC4)cc23)ccc1CNC(=O)c1noc(C2(C)CCC2)n1` [Example 257, N-(4-(6-(2-(4-(3-(2,4-dioxotetrahydropyrimidin-1(2H)-yl)-1-methyl-1H-indazol-6-yl)piperidin-1-yl)ethyl)pyrrolo[2,1-f][1,2,4]triazin-4-yl)-2-methylbenzyl)-5-(1-methylcyclobutyl)-1,2,4-oxadiazole-3-carboxamide] displayed a DC50 of under 100 nM.
Take `CC(C)(C)c1nc(C(=O)NCc2ccc(-c3ncnn4cc(-c5ccc(CN6CCC(c7ccc(NC8CCC(=O)NC8=O)cn7)CC6)c(F)c5)cc34)cc2F)no1` (stereo not shown) [Example 222, 5-(tert-butyl)-N-(4-(6-(4-((4-(5-((2,6-dioxopiperidin-3-yl)amino)pyridin-2-yl)piperidin-1-yl)methyl)-3-fluorophenyl)pyrrolo[2,1-f][1,2,4]triazin-4-yl)-2-fluorobenzyl)-1,2,4-oxadiazole-3-carboxamide]: the DC50 is under 100 nM.
Turning to `Cc1cc(-c2ncnn3cc(CCC(F)(F)CN4CCC(c5ccc(C6CCC(=O)NC6=O)cc5)CC4)cc23)ccc1CNC(=O)c1noc(C(C)(C)C)n1` (stereo not shown) [Example 168, 5-tert-butyl-N-[[4-[6-[4-[4-[4-(2,6-dioxo-3-piperidyl)phenyl]-1-piperidyl]-3,3-difluoro-butyl]pyrrolo[2,1-f][1,2,4]triazin-4-yl]-2-methyl-phenyl]methyl]-1,2,4-oxadiazole-3-carboxamide], the DC50 was under 100 nM.
The compound `Cc1cc(-c2ncnn3cc(C#CCCN4CCC(c5ccc(C6CCC(=O)NC6=O)cc5)CC4)cc23)ccc1CNC(=O)c1noc(C(C)(C)C)n1` (stereo not shown) [Example 291, 5-(tert-butyl)-N-(4-(6-(4-(4-(4-(2,6-dioxopiperidin-3-yl)phenyl)piperidin-1-yl)but-1-yn-1-yl)pyrrolo[2,1-f] [1,2,4]triazin-4-yl)-2-methylbenzyl)-1,2,4-oxadiazole-3-carboxamide] had a DC50 of 100 to 500 nM.
In the case of `Cc1cc(-c2ncnn3cc(-c4ccc(CN5CCC(c6cnc(NC7CCC(=O)NC7=O)nc6)CC5)cc4)cc23)ccc1CNC(=O)c1noc(C(C)(C)C)n1` (stereo not shown) [Example 30, 5-tert-butyl-N-[[4-[6-[4-[[4-[2-[(2,6-dioxo-3-piperidyl)amino]pyrimidin-5-yl]-1-piperidyl]methyl]phenyl]pyrrolo[2,1-f][1,2,4]triazin-4-yl]-2-methyl-phenyl]methyl]-1,2,4-oxadiazole-3-carboxamide], the DC50 was under 100 nM.
For `Cc1cc(-c2ncnn3cc(N4CCN(C(=O)c5ccccc5CNC(=O)c5ccc(OC6CCC(=O)NC6=O)cc5)CC4)cc23)ccc1CNC(=O)c1noc(C(C)(C)C)n1` (stereo not shown) [Example 193, 5-(tert-butyl)-N-(4-(6-(4-(2-((4-((2,6-dioxopiperidin-3-yl)oxy)benzamido)methyl)benzoyl)piperazin-1-yl)pyrrolo[2,1-f][1,2,4]triazin-4-yl)-2-methylbenzyl)-1,2,4-oxadiazole-3-carboxamide] the value was under 100 nM; for `Cc1cc(-c2ncnn3cc(-c4ccc(CN5CCC(c6ccc(NC7CCC(=O)NC7=O)cc6)CC5)cc4)cc23)ccc1CNC(=O)c1ccc(C(F)(F)F)cc1` (stereo not shown) [Example 73, N-[[4-[6-[4-[[4-[4-[(2,6-dioxo-3-piperidyl)amino]phenyl]-1-piperidyl]methyl]phenyl]pyrrolo[2,1-f][1,2,4]triazin-4-yl]-2-methyl-phenyl]methyl]-4-(trifluoromethyl)benzamide], under 100 nM; for `Cc1cc(-c2ncnn3cc(-c4cn(C)c(CN5CCC(c6ccc(C7CCC(=O)NC7=O)cc6)CC5)n4)cc23)ccc1CNC(=O)c1noc(C(C)(C)C)n1` (stereo not shown) [Example 209, 5-(tert-butyl)-N-(4-(6-(2-((4-(4-(2,6-dioxopiperidin-3-yl)phenyl)piperidin-1-yl)methyl)-1-methyl-1H-imidazol-4-yl)pyrrolo[2,1-f][1,2,4]triazin-4-yl)-2-methylbenzyl)-1,2,4-oxadiazole-3-carboxamide], under 100 nM.
`Cc1cc(-c2ncnn3cc(OC[C@@H](F)CN4CCC(c5ccc6c(N7CCC(=O)NC7=O)nn(C)c6c5)CC4)cc23)ccc1CNC(=O)c1noc(C(C)(C)C)n1` [Example 295, (S)-5-(tert-butyl)-N-(4-(6-(3-(4-(3-(2,4-dioxotetrahydropyrimidin-1(2H)-yl)-1-methyl-1H-indazol-6-yl)piperidin-1-yl)-2-fluoropropoxy)pyrrolo[2,1-f][1,2,4]triazin-4-yl)-2-methylbenzyl)-1,2,4-oxadiazole-3-carboxamide] showed a DC50 of under 100 nM.
As for `Cc1cc(-c2ncnn3cc(CCCCN4CCC(c5ccc(NC6CCC(=O)NC6=O)cc5)C(F)(F)C4)cc23)ccc1CNC(=O)c1noc(C(C)(C)C)n1` (stereo not shown) [Example 132, 5-tert-butyl-N-[[4-[6-[4-[4-[4-[(2,6-dioxo-3-piperidyl)amino]phenyl]-3,3-difluoro-1-piperidyl]butyl]pyrrolo[2,1-f][1,2,4]triazin-4-yl]-2-methyl-phenyl]methyl]-1,2,4-oxadiazole-3-carboxamide], the DC50 is under 100 nM.
In the case of `Cc1cc(-c2ncnn3cc(N4CCN(C(=O)c5ncoc5CNC(=O)c5ccc(OC6CCC(=O)NC6=O)cc5)CC4)cc23)ccc1CNC(=O)c1noc(C(C)(C)C)n1` (stereo not shown) [Example 189, 5-(tert-butyl)-N-(4-(6-(4-(5-((4-((2,6-dioxopiperidin-3-yl)oxy)benzamido)methyl)oxazole-4-carbonyl)piperazin-1-yl)pyrrolo[2,1-f][1,2,4]triazin-4-yl)-2-methylbenzyl)-1,2,4-oxadiazole-3-carboxamide] it was under 100 nM; in that of `Cc1cc(-c2ncnn3cc(-c4ccc(CN5CCC(c6ccc(NC7CCC(=O)NC7=O)cc6)CC5)cc4)cc23)ccc1CNC(=O)c1nc(C(C)(C)C)no1` (stereo not shown) [Example 79, 3-tert-butyl-N-[[4-[6-[4-[[4-[4-[(2,6-dioxo-3-piperidyl)amino]phenyl]-1-piperidyl]methyl]phenyl]pyrrolo[2,1-f][1,2,4]triazin-4-yl]-2-methyl-phenyl]methyl]-1,2,4-oxadiazole-5-carboxamide], under 100 nM; in that of `Cn1nc(N2CCC(=O)NC2=O)c2ccc(C3CCN(Cc4ccc(-c5cc6c(-c7ccc(CNC(=O)c8noc(C(C)(C)C)n8)c(F)c7)ncnn6c5)c(F)c4)CC3)cc21` [Example 242, 5-(tert-butyl)-N-(4-(6-(4-((4-(3-(2,4-dioxotetrahydropyrimidin-1(2H)-yl)-1-methyl-1H-indazol-6-yl)piperidin-1-yl)methyl)-2-fluorophenyl)pyrrolo[2,1-f][1,2,4]triazin-4-yl)-2-fluorobenzyl)-1,2,4-oxadiazole-3-carboxamide], under 100 nM.
For the compound `Cc1cc(-c2ncnn3cc(-c4ccc(CN5CCC(c6ccc(NC7CCC(=O)NC7=O)cc6)CC5)cc4)cc23)ccc1CNC(=O)C12CC(C(C)(C)C)(C1)C2` (stereo not shown) [Example 75, 3-tert-butyl-N-[[4-[6-[4-[[4-[4-[(2,6-dioxo-3-piperidyl)amino]phenyl]-1-piperidyl]methyl]phenyl]pyrrolo[2,1-f][1,2,4]triazin-4-yl]-2-methyl-phenyl]methyl]bicyclo[1.1.1]pentane-1-carboxamide], the DC50 was under 100 nM.
`Cc1cc(-c2ccnc3cc(-c4ccc(CN5CCC(c6ccc(NC7CCC(=O)NC7=O)cc6)CC5)cc4)nn23)ccc1CNC(=O)c1noc(C(C)(C)C)n1` (stereo not shown) [Example 162, 5-tert-butyl-N-[[4-[2-[4-[[4-[4-[(2,6-dioxo-3-piperidyl)amino]phenyl]-1-piperidyl]methyl]phenyl]pyrazolo[1,5-a]pyrimidin-7-yl]-2-methyl-phenyl]methyl]-1,2,4-oxadiazole-3-carboxamide] displayed a DC50 of under 100 nM.
Regarding `Cc1cc(-c2ncnn3cc(-c4ccc(CN5CCC(c6ccc(NC7CCC(=O)NC7=O)c(F)c6)CC5)cc4)cc23)ccc1CNC(=O)c1noc(C(C)(C)C)n1` (stereo not shown) [Example 18, 5-tert-butyl-N-[[4-[6-[4-[[4-[4-[(2,6-dioxo-3-piperidyl)amino]-3-fluoro-phenyl]-1-piperidyl]methyl]phenyl]pyrrolo [2,1-f][1,2,4]triazin-4-yl]-2-methyl-phenyl]methyl]-1,2,4-oxadiazole-3-carboxamide], the DC50 is under 100 nM.
In turn, `Cc1cc(-c2ncnn3cc(-c4cnc(Oc5ccc(CN6CCC(c7ccc(C8CCC(=O)NC8=O)cc7)CC6)cc5)nc4)cc23)ccc1CNC(=O)c1noc(C(C)(C)C)n1` (stereo not shown) [Example 206, 5-(tert-butyl)-N-(4-(6-(2-(4-((4-(4-(2,6-dioxopiperidin-3-yl)phenyl)piperidin-1-yl)methyl)phenoxy)pyrimidin-5-yl)pyrrolo[2,1-f][1,2,4]triazin-4-yl)-2-methylbenzyl)-1,2,4-oxadiazole-3-carboxamide] returned a DC50 of under 100 nM.
`CC(C)(C)c1nc(C(=O)NCc2ccc(-c3ncnn4cc(-c5ccc(CN6CCC(c7ccc(NC8CCC(=O)NC8=O)nc7)CC6)cc5)cc34)cc2F)no1` (stereo not shown) [Example 32, 5-tert-butyl-N-[[4-[6-[4-[[4-[6-[(2,6-dioxo-3-piperidyl)amino]-3-pyridyl]-1-piperidyl]methyl]phenyl]pyrrolo[2,1-f][1,2,4]triazin-4-yl]-2-fluoro-phenyl]methyl]-1,2,4-oxadiazole-3-carboxamide] registered a DC50 of under 100 nM.
Turning to `Cn1nc(N2CCC(=O)NC2=O)c2ccc(C3CCN(Cc4ccc(-c5cc6nccc(-c7ccc(CNC(=O)c8noc(C(C)(C)C)n8)c(F)c7)n6n5)cc4)CC3)cc21` [Example 164, 5-tert-butyl-N-[[4-[2-[4-[[4-[3-(2,4-dioxohexahydropyrimidin-1-yl)-1-methyl-indazol-6-yl]-1-piperidyl]methyl]phenyl]pyrazolo[1,5-a]pyrimidin-7-yl]-2-fluoro-phenyl]methyl]-1,2,4-oxadiazole-3-carboxamide], the DC50 was under 100 nM.

One may read the DC50 as the midpoint of the concentration-degradation curve. A low value points to a more potent degrader.
